Measurements from ChEMBL document CHEMBL1139192, “Novel bis(indolyl)maleimide pyridinophanes that are potent, selective inhibitors of glycogen synthase kinase-3” (Bioorg Med Chem Lett, 2007).

Experiments:
[1] = biological target: Protein kinase C delta type (Homo sapiens) (UniProt Q05655); test: Inhibition of human PKCdelta at 1 uM relative to control; values are per cent of control
[2] = biological target: T1, Mitogen-activated protein kinase 12 (Homo sapiens) (UniProt P53778); test: Inhibition of human SAPK3 at 1 uM relative to control; values are per cent of control
T1 sequence (whole entry): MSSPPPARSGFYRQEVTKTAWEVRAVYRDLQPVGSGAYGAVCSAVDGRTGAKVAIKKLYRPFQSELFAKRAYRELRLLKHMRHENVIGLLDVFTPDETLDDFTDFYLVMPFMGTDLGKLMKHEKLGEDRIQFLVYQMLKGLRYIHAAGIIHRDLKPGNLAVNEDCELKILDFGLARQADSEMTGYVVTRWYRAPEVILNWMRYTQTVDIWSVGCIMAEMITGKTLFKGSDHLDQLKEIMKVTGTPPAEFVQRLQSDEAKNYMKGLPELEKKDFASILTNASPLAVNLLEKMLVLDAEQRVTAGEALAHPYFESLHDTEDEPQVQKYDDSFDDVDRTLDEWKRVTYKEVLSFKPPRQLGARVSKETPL

[3] = biological target: Mitogen-activated protein kinase 11 (Homo sapiens) (UniProt Q15759); test: Inhibition of human SAPK2b at 1 uM relative to control; values are per cent of control
[4] = biological target: Mitogen-activated protein kinase 8 (Homo sapiens) (UniProt P45983); test: Inhibition of human JNK1alpha1 at 1 uM relative to control; values are per cent of control
[5] = biological target: Glycogen synthase kinase-3 alpha (Homo sapiens) (UniProt P49840); test: Inhibition of human GSK3alpha relative to control; values are per cent of control
[6] = biological target: T2, Ephrin type-B receptor 2 (Homo sapiens) (UniProt P29323); test: Inhibition of human EphB2 at 1 uM relative to control; values are per cent of control
T2 sequence (whole entry): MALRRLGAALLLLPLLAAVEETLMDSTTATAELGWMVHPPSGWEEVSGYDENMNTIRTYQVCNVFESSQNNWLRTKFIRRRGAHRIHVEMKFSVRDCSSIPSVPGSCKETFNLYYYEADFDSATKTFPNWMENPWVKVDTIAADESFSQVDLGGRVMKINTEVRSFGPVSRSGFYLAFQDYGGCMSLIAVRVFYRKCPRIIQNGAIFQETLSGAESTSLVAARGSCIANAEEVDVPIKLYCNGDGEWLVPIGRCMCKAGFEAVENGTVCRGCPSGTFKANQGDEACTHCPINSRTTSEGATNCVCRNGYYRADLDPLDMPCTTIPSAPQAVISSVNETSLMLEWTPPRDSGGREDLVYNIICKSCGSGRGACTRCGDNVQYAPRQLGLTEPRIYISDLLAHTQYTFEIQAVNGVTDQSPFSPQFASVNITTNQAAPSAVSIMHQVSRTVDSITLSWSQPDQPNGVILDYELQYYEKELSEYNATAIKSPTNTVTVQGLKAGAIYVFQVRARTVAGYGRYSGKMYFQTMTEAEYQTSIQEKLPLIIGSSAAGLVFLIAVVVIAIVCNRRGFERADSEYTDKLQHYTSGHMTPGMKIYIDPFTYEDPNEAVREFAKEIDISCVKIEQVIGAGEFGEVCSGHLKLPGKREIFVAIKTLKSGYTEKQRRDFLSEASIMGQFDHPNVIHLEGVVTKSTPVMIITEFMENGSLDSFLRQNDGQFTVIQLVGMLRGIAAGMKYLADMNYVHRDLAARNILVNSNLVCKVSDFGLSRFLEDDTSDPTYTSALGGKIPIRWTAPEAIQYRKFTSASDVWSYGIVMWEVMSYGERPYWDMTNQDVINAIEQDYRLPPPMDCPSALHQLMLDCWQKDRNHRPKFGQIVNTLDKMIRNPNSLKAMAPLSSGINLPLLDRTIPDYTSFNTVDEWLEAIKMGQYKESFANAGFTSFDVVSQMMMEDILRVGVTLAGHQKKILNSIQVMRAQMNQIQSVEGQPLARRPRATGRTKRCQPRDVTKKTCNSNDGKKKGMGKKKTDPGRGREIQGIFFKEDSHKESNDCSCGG

[7] = biological target: T3, Aurora kinase A (Homo sapiens) (UniProt O14965); test: Residual activity of human Aurora A at 1 uM relative to control
T3 sequence (whole entry): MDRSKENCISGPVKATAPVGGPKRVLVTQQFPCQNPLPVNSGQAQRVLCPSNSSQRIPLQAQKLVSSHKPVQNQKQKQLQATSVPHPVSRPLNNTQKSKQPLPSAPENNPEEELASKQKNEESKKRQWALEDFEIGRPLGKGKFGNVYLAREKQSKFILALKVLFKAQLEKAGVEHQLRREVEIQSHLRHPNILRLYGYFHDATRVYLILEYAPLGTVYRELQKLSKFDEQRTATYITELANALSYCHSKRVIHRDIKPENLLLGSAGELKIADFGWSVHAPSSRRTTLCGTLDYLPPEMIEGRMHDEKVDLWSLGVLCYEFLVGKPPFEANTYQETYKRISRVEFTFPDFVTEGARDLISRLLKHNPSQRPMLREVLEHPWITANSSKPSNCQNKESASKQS

[8] = biological target: T4, Serine/threonine-protein kinase Nek2 (Homo sapiens) (UniProt P51955); test: Inhibition of human NEK2 at 1 uM relative to control; values are per cent of control
T4 sequence (whole entry): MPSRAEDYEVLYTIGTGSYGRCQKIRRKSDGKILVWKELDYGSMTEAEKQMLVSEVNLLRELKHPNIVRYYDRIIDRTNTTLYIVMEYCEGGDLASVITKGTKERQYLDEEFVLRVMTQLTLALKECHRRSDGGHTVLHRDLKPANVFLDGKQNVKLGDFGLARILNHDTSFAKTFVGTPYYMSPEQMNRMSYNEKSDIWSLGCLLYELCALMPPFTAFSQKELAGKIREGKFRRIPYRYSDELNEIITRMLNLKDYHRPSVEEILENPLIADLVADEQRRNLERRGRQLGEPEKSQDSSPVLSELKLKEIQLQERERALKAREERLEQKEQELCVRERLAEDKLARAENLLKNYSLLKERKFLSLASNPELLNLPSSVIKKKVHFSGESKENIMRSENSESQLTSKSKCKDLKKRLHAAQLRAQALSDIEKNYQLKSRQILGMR

[9] = biological target: Macrophage colony-stimulating factor 1 receptor (Homo sapiens) (UniProt P07333); test: Residual activity of human Fms at 1 uM relative to control
[10] = system: Tyrosine-protein kinase ABL1 (Homo sapiens), P00519 [T315I]; test: Residual activity of human Abl T315I mutant at 1 uM relative to control

Sequence of Mitogen-activated protein kinase 8 (Homo sapiens) (P45983 whole entry): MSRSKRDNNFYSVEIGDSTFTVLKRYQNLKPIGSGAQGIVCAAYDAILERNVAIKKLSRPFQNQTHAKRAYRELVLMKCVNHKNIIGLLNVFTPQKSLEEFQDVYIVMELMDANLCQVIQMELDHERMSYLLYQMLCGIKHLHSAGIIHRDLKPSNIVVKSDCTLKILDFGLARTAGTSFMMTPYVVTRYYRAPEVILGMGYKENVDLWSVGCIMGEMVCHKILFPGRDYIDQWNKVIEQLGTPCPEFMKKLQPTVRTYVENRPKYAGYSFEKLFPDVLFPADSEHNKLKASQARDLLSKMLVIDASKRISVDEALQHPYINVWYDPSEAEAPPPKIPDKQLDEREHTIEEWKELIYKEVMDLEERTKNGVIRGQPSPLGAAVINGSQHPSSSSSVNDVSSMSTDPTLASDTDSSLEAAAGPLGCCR
Sequence of Protein kinase C delta type (Homo sapiens) (Q05655 whole entry, looked up): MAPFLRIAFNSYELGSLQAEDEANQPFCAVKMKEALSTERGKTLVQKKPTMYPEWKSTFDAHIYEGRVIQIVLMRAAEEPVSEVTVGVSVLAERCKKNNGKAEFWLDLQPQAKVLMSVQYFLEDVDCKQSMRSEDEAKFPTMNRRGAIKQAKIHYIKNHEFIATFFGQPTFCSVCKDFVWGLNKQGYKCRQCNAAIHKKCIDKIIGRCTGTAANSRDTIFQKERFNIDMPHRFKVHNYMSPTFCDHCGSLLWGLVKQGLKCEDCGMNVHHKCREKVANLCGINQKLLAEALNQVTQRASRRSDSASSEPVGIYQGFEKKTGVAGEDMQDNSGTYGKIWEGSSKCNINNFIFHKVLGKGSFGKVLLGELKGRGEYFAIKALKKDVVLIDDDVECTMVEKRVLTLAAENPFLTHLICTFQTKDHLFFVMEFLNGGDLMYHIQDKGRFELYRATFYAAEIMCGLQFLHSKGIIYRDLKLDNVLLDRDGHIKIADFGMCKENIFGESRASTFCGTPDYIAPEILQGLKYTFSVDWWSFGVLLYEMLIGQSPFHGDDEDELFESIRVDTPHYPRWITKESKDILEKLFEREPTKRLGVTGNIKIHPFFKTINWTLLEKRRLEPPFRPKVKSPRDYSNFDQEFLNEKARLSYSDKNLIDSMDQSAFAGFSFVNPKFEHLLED
Sequence of Mitogen-activated protein kinase 11 (Homo sapiens) (Q15759 whole entry): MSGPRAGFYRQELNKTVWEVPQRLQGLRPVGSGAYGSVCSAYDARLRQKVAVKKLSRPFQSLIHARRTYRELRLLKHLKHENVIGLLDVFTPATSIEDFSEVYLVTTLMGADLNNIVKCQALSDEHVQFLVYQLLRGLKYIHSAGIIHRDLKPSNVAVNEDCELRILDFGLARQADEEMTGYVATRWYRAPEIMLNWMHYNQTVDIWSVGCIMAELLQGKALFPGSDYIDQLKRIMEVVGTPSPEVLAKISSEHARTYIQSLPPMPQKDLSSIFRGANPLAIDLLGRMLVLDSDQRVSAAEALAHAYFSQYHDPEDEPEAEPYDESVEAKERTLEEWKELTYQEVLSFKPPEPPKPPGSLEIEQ
Sequence of Glycogen synthase kinase-3 alpha (Homo sapiens) (P49840 2-483 limits assumed): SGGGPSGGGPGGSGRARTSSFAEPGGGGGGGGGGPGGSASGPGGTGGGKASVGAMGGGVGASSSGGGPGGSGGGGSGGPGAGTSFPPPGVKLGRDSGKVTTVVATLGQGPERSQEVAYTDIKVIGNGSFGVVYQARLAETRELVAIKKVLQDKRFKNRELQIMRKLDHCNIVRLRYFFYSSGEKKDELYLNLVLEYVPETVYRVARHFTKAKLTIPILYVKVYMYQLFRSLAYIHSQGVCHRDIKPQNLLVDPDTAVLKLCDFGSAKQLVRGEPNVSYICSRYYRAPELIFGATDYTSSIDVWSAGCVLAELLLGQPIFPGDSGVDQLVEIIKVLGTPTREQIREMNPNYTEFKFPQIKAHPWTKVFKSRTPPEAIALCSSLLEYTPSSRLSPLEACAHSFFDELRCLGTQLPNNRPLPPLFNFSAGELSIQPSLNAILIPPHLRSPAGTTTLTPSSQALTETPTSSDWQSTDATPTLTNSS
Sequence of Macrophage colony-stimulating factor 1 receptor (Homo sapiens) (P07333 whole entry): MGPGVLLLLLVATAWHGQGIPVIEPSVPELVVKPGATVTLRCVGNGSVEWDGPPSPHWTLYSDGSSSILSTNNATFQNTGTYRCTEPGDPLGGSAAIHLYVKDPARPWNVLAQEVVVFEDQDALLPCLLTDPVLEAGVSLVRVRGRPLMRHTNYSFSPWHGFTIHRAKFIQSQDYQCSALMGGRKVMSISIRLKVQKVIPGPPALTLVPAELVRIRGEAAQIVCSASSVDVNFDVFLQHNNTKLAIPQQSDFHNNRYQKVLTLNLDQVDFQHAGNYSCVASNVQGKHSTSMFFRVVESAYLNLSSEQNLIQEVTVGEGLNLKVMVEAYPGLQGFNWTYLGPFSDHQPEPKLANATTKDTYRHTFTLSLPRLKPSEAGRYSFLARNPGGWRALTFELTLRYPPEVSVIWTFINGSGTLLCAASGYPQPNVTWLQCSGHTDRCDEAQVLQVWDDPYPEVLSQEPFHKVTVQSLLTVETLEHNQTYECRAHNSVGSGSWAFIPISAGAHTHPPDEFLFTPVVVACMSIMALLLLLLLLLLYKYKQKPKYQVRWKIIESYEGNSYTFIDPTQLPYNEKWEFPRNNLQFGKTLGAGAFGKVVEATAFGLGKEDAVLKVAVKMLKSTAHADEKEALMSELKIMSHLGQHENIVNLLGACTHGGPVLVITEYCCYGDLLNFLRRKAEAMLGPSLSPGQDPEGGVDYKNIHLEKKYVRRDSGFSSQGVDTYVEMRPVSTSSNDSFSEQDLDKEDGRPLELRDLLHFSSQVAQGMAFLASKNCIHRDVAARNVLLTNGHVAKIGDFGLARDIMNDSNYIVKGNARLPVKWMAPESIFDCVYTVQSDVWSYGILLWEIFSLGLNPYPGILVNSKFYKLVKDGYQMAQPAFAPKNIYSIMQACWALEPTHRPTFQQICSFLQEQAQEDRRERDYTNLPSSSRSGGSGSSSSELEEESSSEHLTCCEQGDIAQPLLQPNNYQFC

SMILES	residual activity [1]	residual activity [2]	residual activity [3]	residual activity [4]	residual activity [5]	residual activity [6]	residual activity [7]	residual activity [8]	residual activity [9]	residual activity [10]
CN(C)c1cc2cc(n1)CCCn1cc(c3ccccc31)C1=C(C(=O)NC1=O)c1cn(c3ccccc13)CCC2	100%	115%	119%	105%	3%	114%	111%	102%	101%	79%
O=C1NC(=O)C2=C1c1cn(c3ccccc13)CCCc1cc(nc(N3CCCC3)c1)CCCn1cc2c2ccccc21	104%	103%	114%	108%	4%	110%	111%	105%	99%	77%
O=C1NC(=O)C2=C1c1cn(c3ccccc13)CCCc1ccc(c(N3CCCC3)n1)CCCn1cc2c2ccccc21	91%	114%	99%	104%	9%	114%	106%	99%	106%	103%
CN(C)c1nc2ccc1CCCn1cc(c3ccccc31)C1=C(C(=O)NC1=O)c1cn(c3ccccc13)CC2	73%	78%	104%	102%	4%	125%	109%	104%	94%	100%
